In patent publication US20260070945A1, “MACROCYCLIC IMMUNOMODULATORS” (Bristol-Myers Squibb Company, priority 2022, published 2026):
Where a SMILES comes first, the peptide text is derived from it. Bridges are numbered along the chain shown (N, C = ends). [ ]: non-standard residue; d: D form. The star is where a group is joined. ξ: configuration not given here. Phe(4-COOH) = N[C@@H](Cc1ccc(C(=O)O)cc1)C(=O)O; Bip = N[C@@H](Cc1ccc(-c2ccccc2)cc1)C(=O)O; Phe(3-F) = N[C@@H](Cc1cccc(F)c1)C(=O)O; Phe(3-Me) = Cc1cccc(C[C@H](N)C(=O)O)c1; Val(3-OH) = CC(C)(O)[C@H](N)C(=O)O; Cha = N[C@@H](CC1CCCCC1)C(=O)O; Ile(3ξ) = CCC(C)[C@H](N)C(=O)O; Carboxymethyl = O=C(O)C*; NMeA = CN[C@@H](C)C(=O)O; Aun = NCCCCCCCCCCC(=O)O; Dab = NCC[C@H](N)C(=O)O; AEEA = NCCOCCOCC(=O)O; ξDab = NCCC(N)C(=O)O

Each compound was assayed against T1, PD-1/PD-L1 interaction (PE-labeled human PD-L1-Ig binding to Jurkat cell line over-expressing human PD-1) (Homo sapiens, UniProt Q15116) (assay: Jurkat-PD-1 Cell Binding High-Content Screening Assay (CBA)). Details: Jurkat-hPD-1 cells, PE-labeled PD-L1-Ig 20 nM final; read-out: Jurkat HPD1 PDL1 IC50.
T1 construct: expressed in transfected cells; host or cells: Jurkat
T1 sequence (Q15116 25-288): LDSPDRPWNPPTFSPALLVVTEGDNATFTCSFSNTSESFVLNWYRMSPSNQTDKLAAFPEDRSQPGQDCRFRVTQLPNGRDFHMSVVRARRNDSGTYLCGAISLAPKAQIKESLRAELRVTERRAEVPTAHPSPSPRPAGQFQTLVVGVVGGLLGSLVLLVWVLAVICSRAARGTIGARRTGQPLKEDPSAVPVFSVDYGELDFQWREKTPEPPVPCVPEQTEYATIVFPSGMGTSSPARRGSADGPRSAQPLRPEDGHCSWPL
Outline: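 Binding of 20 nM (final) PE-tagged PD-L1-Ig to compound-pretreated Jurkat-hPD-1 cells was measured by high-content imaging after 1 h. Pretreatment ran 2 h at 37 °C in DMEM with 10% fetal calf serum.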

SMILES | IC50
CC(C)C[C@@H]1NC(=O)[C@H](Cc2c[nH]c3ccccc23)NC(=O)[C@H](CC(=O)O)NC(=O)[C@H](Cc2ccc(C(=O)O)cc2)NC(=O)[C@H](Cc2ccc(OCC(=O)O)cc2)NC(=O)CSC[C@@H](C(=O)N[C@@H](CC(N)=O)C(=O)NCCOCCOCC(=O)NCCCCCCCCCCC(=O)O)NC(=O)[C@H](CO)NC(=O)[C@H](C(C)(C)O)NC(=O)[C@H](CC2CCCCC2)NC(=O)[C@H](CCN)NC(=O)[C@@H](CC(C)C)NC(=O)[C@H](C)N(C)C(=O)[C@H](C(C)C)NC(=O)[C@H](Cc2ccc(-c3ccccc3)cc2)NC1=O [Example 1413] ({CH2CO}-Y(Carboxymethyl)[Phe(4-COOH)]DWL[Bip]V[NMeA][dL][Dab][Cha][Val(3-OH)]SCN[AEEA][Aun]-OH; thioether N-14) | 18.1 nM
CCC(C)[C@@H]1NC(=O)[C@H](Cc2ccc(-c3ccccc3)cc2)NC(=O)[C@H](CC(C)C)NC(=O)[C@H](Cc2c[nH]c3ccccc23)NC(=O)[C@H](CC(=O)O)NC(=O)[C@H](Cc2ccc(C(=O)O)cc2)NC(=O)[C@H](Cc2ccc(OCC(=O)O)cc2)NC(=O)CSC[C@@H](C(=O)N[C@@H](CCN)C(=O)NCCOCCOCC(=O)NCCCCCCCCCCC(=O)O)NC(=O)[C@H](CCC(=O)O)NC(=O)[C@H](C(C)(C)O)NC(=O)[C@H](CC2CCCCC2)NC(=O)[C@H](CCN)NC(=O)[C@@H](CC(C)C)NC(=O)[C@H](C)N(C)C1=O (stereo partly drawn) [Example 1414] ({CH2CO}-Y(Carboxymethyl)[Phe(4-COOH)]DWL[Bip][Ile(3ξ)][NMeA][dL][Dab][Cha][Val(3-OH)]EC[Dab][AEEA][Aun]-OH; thioether N-14) | 3 nM
Cc1cccc(C[C@@H]2NC(=O)[C@H](CC(=O)O)NC(=O)[C@H](Cc3ccc(OCC(=O)O)cc3)NC(=O)[C@H]([C@@H](C)O)NC(=O)CSC[C@@H](C(=O)N[C@@H](CC(N)=O)C(=O)NCCOCCOCC(=O)NCCCCCCCCCCC(=O)O)NC(=O)[C@H](CCC(=O)O)NC(=O)[C@H](C(C)(C)O)NC(=O)[C@H](CC3CCCCC3)NC(=O)[C@H](CCN)NC(=O)[C@@H](CC(C)C)NC(=O)[C@H](C)N(C)C(=O)[C@H](Cc3ccc(OCC(=O)O)cc3)NC(=O)[C@H](Cc3ccc(-c4ccccc4)cc3)NC(=O)[C@H](Cc3ccc(OCC(=O)O)cc3)NC2=O)c1 [Example 1415] ({CH2CO}-TY(Carboxymethyl)D[Phe(3-Me)]Y(Carboxymethyl)[Bip]Y(Carboxymethyl)[NMeA][dL][Dab][Cha][Val(3-OH)]ECN[AEEA][Aun]-OH; thioether N-14) | 172 nM
Cc1cccc(C[C@@H]2NC(=O)[C@H](CC(=O)O)NC(=O)[C@H](Cc3ccc(OCC(=O)O)cc3)NC(=O)[C@H]([C@@H](C)O)NC(=O)CSC[C@@H](C(=O)N[C@H](CC(N)=O)C(=O)NCCOCCOCC(=O)NCCCCCCCCCCC(=O)O)NC(=O)[C@H](CCC(=O)O)NC(=O)[C@H](C(C)(C)O)NC(=O)[C@H](CC3CCCCC3)NC(=O)[C@H](CCN)NC(=O)[C@@H](CC(C)C)NC(=O)[C@H](C)N(C)C(=O)[C@H](Cc3ccc(OCC(=O)O)cc3)NC(=O)[C@H](Cc3ccc(-c4ccccc4)cc3)NC(=O)[C@H](Cc3ccc(OCC(=O)O)cc3)NC2=O)c1 [Example 1416] ({CH2CO}-TY(Carboxymethyl)D[Phe(3-Me)]Y(Carboxymethyl)[Bip]Y(Carboxymethyl)[NMeA][dL][Dab][Cha][Val(3-OH)]EC[dN][AEEA][Aun]-OH; thioether N-14) | 311 nM
Cc1cccc(C[C@@H]2NC(=O)[C@H](CC(=O)O)NC(=O)[C@H](Cc3ccc(OCC(=O)O)cc3)NC(=O)[C@H]([C@@H](C)O)NC(=O)CSC[C@@H](C(=O)N[C@H](C)C(=O)NCCOCCOCC(=O)NCCCCCCCCCCC(=O)O)NC(=O)[C@H](CCC(=O)O)NC(=O)[C@H](C(C)(C)O)NC(=O)[C@H](CC3CCCCC3)NC(=O)[C@H](CCN)NC(=O)[C@@H](CC(C)C)NC(=O)[C@H](C)N(C)C(=O)[C@H](Cc3ccc(OCC(=O)O)cc3)NC(=O)[C@H](Cc3ccc(-c4ccccc4)cc3)NC(=O)[C@H](Cc3ccc(OCC(=O)O)cc3)NC2=O)c1 [Example 1417] ({CH2CO}-TY(Carboxymethyl)D[Phe(3-Me)]Y(Carboxymethyl)[Bip]Y(Carboxymethyl)[NMeA][dL][Dab][Cha][Val(3-OH)]EC[dA][AEEA][Aun]-OH; thioether N-14) | 379 nM
Cc1cccc(C[C@@H]2NC(=O)[C@H](CC(=O)O)NC(=O)[C@H](Cc3ccc(OCC(=O)O)cc3)NC(=O)[C@H]([C@@H](C)O)NC(=O)CSC[C@@H](C(=O)N[C@@H](CCN)C(=O)NCCCCCCCCCCC(=O)O)NC(=O)[C@H](CCC(=O)O)NC(=O)[C@H](C(C)(C)O)NC(=O)[C@H](CC3CCCCC3)NC(=O)[C@H](CCN)NC(=O)[C@@H](CC(C)C)NC(=O)[C@H](C)N(C)C(=O)[C@H](Cc3ccc(OCC(=O)O)cc3)NC(=O)[C@H](Cc3ccc(-c4ccccc4)cc3)NC(=O)[C@H](Cc3ccc(OCC(=O)O)cc3)NC2=O)c1 [Example 1418] ({CH2CO}-TY(Carboxymethyl)D[Phe(3-Me)]Y(Carboxymethyl)[Bip]Y(Carboxymethyl)[NMeA][dL][Dab][Cha][Val(3-OH)]EC[Dab][Aun]-OH; thioether N-14) | 37.1 nM
Cc1cccc(C[C@@H]2NC(=O)[C@H](CC(=O)O)NC(=O)[C@H](Cc3ccc(OCC(=O)O)cc3)NC(=O)[C@H]([C@@H](C)O)NC(=O)CSC[C@@H](C(=O)N[C@@H](CC(N)=O)C(=O)NCCCCCCCCCCC(=O)O)NC(=O)[C@H](CCC(=O)O)NC(=O)[C@H](C(C)(C)O)NC(=O)[C@H](CC3CCCCC3)NC(=O)[C@H](CCN)NC(=O)[C@@H](CC(C)C)NC(=O)[C@H](C)N(C)C(=O)[C@H](Cc3ccc(OCC(=O)O)cc3)NC(=O)[C@H](Cc3ccc(-c4ccccc4)cc3)NC(=O)[C@H](Cc3ccc(OCC(=O)O)cc3)NC2=O)c1 [Example 1419] ({CH2CO}-TY(Carboxymethyl)D[Phe(3-Me)]Y(Carboxymethyl)[Bip]Y(Carboxymethyl)[NMeA][dL][Dab][Cha][Val(3-OH)]ECN[Aun]-OH; thioether N-14) | 186 nM
Cc1cccc(C[C@@H]2NC(=O)[C@H](CC(=O)O)NC(=O)[C@H](Cc3ccc(OCC(=O)O)cc3)NC(=O)[C@H]([C@@H](C)O)NC(=O)CSC[C@@H](C(=O)N[C@H](CC(N)=O)C(=O)NCCCCCCCCCCC(=O)O)NC(=O)[C@H](CCC(=O)O)NC(=O)[C@H](C(C)(C)O)NC(=O)[C@H](CC3CCCCC3)NC(=O)[C@H](CCN)NC(=O)[C@@H](CC(C)C)NC(=O)[C@H](C)N(C)C(=O)[C@H](Cc3ccc(OCC(=O)O)cc3)NC(=O)[C@H](Cc3ccc(-c4ccccc4)cc3)NC(=O)[C@H](Cc3ccc(OCC(=O)O)cc3)NC2=O)c1 [Example 1420] ({CH2CO}-TY(Carboxymethyl)D[Phe(3-Me)]Y(Carboxymethyl)[Bip]Y(Carboxymethyl)[NMeA][dL][Dab][Cha][Val(3-OH)]EC[dN][Aun]-OH; thioether N-14) | 116 nM
Cc1cccc(C[C@@H]2NC(=O)[C@H](CC(=O)O)NC(=O)[C@H](Cc3ccc(OCC(=O)O)cc3)NC(=O)[C@H]([C@@H](C)O)NC(=O)CSC[C@@H](C(=O)N[C@H](C)C(=O)NCCCCCCCCCCC(=O)O)NC(=O)[C@H](CCC(=O)O)NC(=O)[C@H](C(C)(C)O)NC(=O)[C@H](CC3CCCCC3)NC(=O)[C@H](CCN)NC(=O)[C@@H](CC(C)C)NC(=O)[C@H](C)N(C)C(=O)[C@H](Cc3ccc(OCC(=O)O)cc3)NC(=O)[C@H](Cc3ccc(-c4ccccc4)cc3)NC(=O)[C@H](Cc3ccc(OCC(=O)O)cc3)NC2=O)c1 [Example 1421] ({CH2CO}-TY(Carboxymethyl)D[Phe(3-Me)]Y(Carboxymethyl)[Bip]Y(Carboxymethyl)[NMeA][dL][Dab][Cha][Val(3-OH)]EC[dA][Aun]-OH; thioether N-14) | 240 nM
Cc1cccc(C[C@@H]2NC(=O)[C@H](CC(=O)O)NC(=O)[C@H](Cc3ccc(OCC(=O)O)cc3)NC(=O)[C@H]([C@@H](C)O)NC(=O)CSC[C@@H](C(=O)N[C@@H](CCN)C(=O)NCCCCCCCCCCC(=O)O)NC(=O)[C@H](CCC(=O)O)NC(=O)[C@H](C(C)C)NC(=O)[C@H](CC3CCCCC3)NC(=O)[C@H](CCN)NC(=O)[C@@H](CC(C)C)NC(=O)[C@H](C)N(C)C(=O)[C@H](Cc3ccc(OCC(=O)O)cc3)NC(=O)[C@H](Cc3ccc(-c4ccccc4)cc3)NC(=O)[C@H](Cc3ccc(OCC(=O)O)cc3)NC2=O)c1 [Example 1422] ({CH2CO}-TY(Carboxymethyl)D[Phe(3-Me)]Y(Carboxymethyl)[Bip]Y(Carboxymethyl)[NMeA][dL][Dab][Cha]VEC[Dab][Aun]-OH; thioether N-14) | 20.2 nM
Cc1cccc(C[C@@H]2NC(=O)[C@H](CC(=O)O)NC(=O)[C@H](Cc3ccc(OCC(=O)O)cc3)NC(=O)[C@H]([C@@H](C)O)NC(=O)CSC[C@@H](C(=O)NC(CCN)C(=O)NCCOCCOCC(=O)NCCCCCCCCCCC(=O)O)NC(=O)[C@H](CCC(=O)O)NC(=O)[C@H](C(C)(C)O)NC(=O)[C@H](CC3CCCCC3)NC(=O)[C@H](CCN)NC(=O)[C@@H](CC(C)C)NC(=O)[C@H](C)N(C)C(=O)[C@H](Cc3ccc(OCC(=O)O)cc3)NC(=O)[C@H](Cc3ccc(-c4ccccc4)cc3)NC(=O)[C@H](Cc3ccc(C(=O)O)cc3)NC2=O)c1 (stereo partly drawn) [Example 1423] ({CH2CO}-TY(Carboxymethyl)D[Phe(3-Me)][Phe(4-COOH)][Bip]Y(Carboxymethyl)[NMeA][dL][Dab][Cha][Val(3-OH)]EC[ξDab][AEEA][Aun]-OH; thioether N-14) | 28.1 nM
Cc1cccc(C[C@@H]2NC(=O)[C@H](CC(=O)O)NC(=O)[C@H](Cc3ccc(OCC(=O)O)cc3)NC(=O)[C@H]([C@@H](C)O)NC(=O)CSC[C@@H](C(=O)N[C@@H](CCN)C(=O)NCCOCCOCC(=O)NCCCCCCCCCCC(=O)O)NC(=O)[C@H](CCC(=O)O)NC(=O)[C@H](C(C)(C)O)NC(=O)[C@H](CC3CCCCC3)NC(=O)[C@H](CCN)NC(=O)[C@@H](CC(C)C)NC(=O)[C@H](C)N(C)C(=O)[C@H](Cc3ccc(OCC(=O)O)cc3)NC(=O)[C@H](Cc3ccc(-c4ccccc4)cc3)NC(=O)[C@H](Cc3cccc(F)c3)NC2=O)c1 [Example 1424] ({CH2CO}-TY(Carboxymethyl)D[Phe(3-Me)][Phe(3-F)][Bip]Y(Carboxymethyl)[NMeA][dL][Dab][Cha][Val(3-OH)]EC[Dab][AEEA][Aun]-OH; thioether N-14) | 27.7 nM
